Reference: patent US10213429B2, “Imidazo-pyrazinyl derivatives useful as soluble guanylate cyclase activators” (Merck Sharp & Dohme Corp., priority 2015, dated 2019)

Experiments:
sGC α1/β1 heterodimer = biological target: T1, sGC α1/β1 heterodimer (Homo sapiens, UniProt Q02108+Q02153); experiment: Cell-Based sGC Functional Assay (CASA Assay), cGMP by HTRF in CHO-K1/sGC cells; conditions: for Emax: CHO-K1, percent activation relative to maximum cGMP production of Compound A (= 100%), read-out: % Act.; for EC50: cGMP production, 1 hr at 37° C., 4P fit, presence or absence of 1 μM DETA-NO not given, read-out: IP (nM) (inflection point)
T1 construct: expressed in transfected cells; host or cells: CHO-K1 (clone #7, CHO-K1/sGC)
T1 sequence (Q02108 1-690): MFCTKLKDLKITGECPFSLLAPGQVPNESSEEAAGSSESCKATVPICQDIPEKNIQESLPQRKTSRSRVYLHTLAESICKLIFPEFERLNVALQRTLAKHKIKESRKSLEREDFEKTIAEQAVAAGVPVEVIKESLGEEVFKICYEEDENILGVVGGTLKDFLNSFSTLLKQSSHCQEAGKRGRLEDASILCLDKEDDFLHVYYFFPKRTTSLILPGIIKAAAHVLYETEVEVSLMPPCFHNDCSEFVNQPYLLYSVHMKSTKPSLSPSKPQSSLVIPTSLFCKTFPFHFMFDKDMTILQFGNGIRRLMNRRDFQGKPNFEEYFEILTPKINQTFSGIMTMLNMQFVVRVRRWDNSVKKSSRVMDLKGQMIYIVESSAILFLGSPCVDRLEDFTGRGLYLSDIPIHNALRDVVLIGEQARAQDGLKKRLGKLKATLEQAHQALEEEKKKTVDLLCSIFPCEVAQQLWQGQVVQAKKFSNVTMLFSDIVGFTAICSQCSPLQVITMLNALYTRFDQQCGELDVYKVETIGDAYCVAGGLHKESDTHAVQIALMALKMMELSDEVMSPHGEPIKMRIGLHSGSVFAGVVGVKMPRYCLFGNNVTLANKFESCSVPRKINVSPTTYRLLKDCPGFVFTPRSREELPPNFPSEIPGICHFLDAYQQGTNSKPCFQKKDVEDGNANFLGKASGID
T1 sequence (Q02153 1-619): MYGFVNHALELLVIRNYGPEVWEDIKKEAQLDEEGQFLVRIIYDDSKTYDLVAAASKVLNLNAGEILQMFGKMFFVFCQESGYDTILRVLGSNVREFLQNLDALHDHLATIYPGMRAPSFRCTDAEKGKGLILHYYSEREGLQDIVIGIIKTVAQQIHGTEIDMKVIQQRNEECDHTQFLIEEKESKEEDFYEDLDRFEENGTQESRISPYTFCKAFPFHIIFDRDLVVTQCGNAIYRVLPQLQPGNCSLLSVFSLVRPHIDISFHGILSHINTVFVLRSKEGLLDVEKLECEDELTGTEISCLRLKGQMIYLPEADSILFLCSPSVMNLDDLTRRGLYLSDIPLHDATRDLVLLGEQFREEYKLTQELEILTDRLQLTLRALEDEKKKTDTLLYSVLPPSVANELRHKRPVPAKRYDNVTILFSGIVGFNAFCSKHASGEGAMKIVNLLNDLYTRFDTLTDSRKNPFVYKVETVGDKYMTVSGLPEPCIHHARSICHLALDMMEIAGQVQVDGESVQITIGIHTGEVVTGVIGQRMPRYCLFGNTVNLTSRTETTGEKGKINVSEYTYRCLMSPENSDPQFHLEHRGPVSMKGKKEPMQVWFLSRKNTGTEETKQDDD
Summary of the method: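 CHO-K1 cells stably expressing human sGC α1/β1, in EBSS buffer with 5 mM MgCl2, 10 mM HEPES, 0.05% BSA and 0.5 mM IBMX, incubated with compound (2.5% DMSO) ± 1 μM DETA-NO, 1 h, 37 °C. Intracellular cGMP read by HTRF; activity as % of reference activator maximum, IP from 4-parameter fit.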

[1] = test system: Spontaneously hypertensive rats (SHR); experiment: Acute Efficacy in Spontaneously Hypertensive Rats (SHR), telemetry blood pressure; type: in vivo, rat; conditions: SHR male
From the text: Acute Efficacy in Spontaneously Hypertensive Rats (SHR)
Spontaneously hypertensive rats (SHR, male, Charles River) were implanted with DSI TA11PA-C40 telemetry device (Data Sciences, Inc., St. Paul, Minn.) under isoflurane or ketamine/metomidine anesthesia. The telemetry unit catheter was inserted into the descending aorta via the femoral artery and the telemetry device was implanted subcutaneously in the left flank area. Animals were allowed to recover from surgery for 14 days before the start of any studies. Blood pressure, heart rate, and activity signals from conscious, freely moving rats were recorded continuously for 30 seconds every 10 minutes. On the day prior to administration of compound, a single oral dose of vehicle (10% transcutol/20% Cremophor/70% water) was administered to all animals to establish baseline control data. The blood pressure lowering efficacy of compound (PO) or vehicle was evaluated following a single oral gavage. Data were collected as hourly averages, and changes in blood pressure were calculated by subtracting control baseline data on an hourly basis. Animals were maintained on normal diet with a 12 hour light-dark cycle.
Maximum peak decreases of systolic blood pressure (SBP) in SHR at a particular P.O. dose (mpk milligrams per kilogram) for the following representative compounds are provided. • Category A=SBP in SHRs<20 mmHg; Category B=SBP in SHRs 20-40 mmHg; • Category C=SBP in SHRs>40 mmHg

SMILES | Emax (sGC α1/β1 heterodimer) | EC50 (sGC α1/β1 heterodimer) | Cat. (maximum peak decrease of systolic blood pressure (SBP) in SHR) ([1]; single oral dose 1.0 mpk P.O.) | Cat. (maximum peak decrease of systolic blood pressure (SBP) in SHR) ([1]; single oral dose 3.0 mpk P.O.)
CC1(c2ccc(F)cc2)C(=O)Nc2nc(-c3cn4ccnc4c(OCCC4CC4)n3)nc(O)c21 (stereo not drawn) [Example 93A, 2-(8-(2-Cyclopropylethoxy)imidazo[1,2-a]pyrazin-6-yl)-5-(4-fluorophenyl)-4-hydroxy-5-methyl-5H-pyrrolo[2,3-d]pyrimidin-6(7H)-one] | 86% | 163 nM | A (Category A=SBP in SHRs<20 mmHg) | –
CC1(c2ccc(F)cc2)C(=O)Nc2nc(-c3cn4ccnc4c(CC4CCC4)n3)nc(O)c21 (stereo not drawn) [Example 29A, 2-(8-(cyclobutylmethyl)imidazo [1,2-a]pyrazin-6-yl)-5-(4-fluorophenyl)-4-hydroxy-5-methyl-5H-pyrrolo[2,3-d]pyrimidin-6(7H)-one] | 92% | 225 nM | – | B (Category B=SBP in SHRs 20-40 mmHg)
CC1(c2ccc(F)cc2)C(=O)Nc2nc(-c3cn4ccnc4c(Cc4ccc(F)cc4)n3)nc(O)c21 (stereo not drawn) [Example 81A, 2-(8-(4-fluorobenzyl)imidazo[1,2-a]pyrazin-6-yl)-5-(4-fluorophenyl)-4-hydroxy-5-methyl-5H-pyrrolo[2,3-d]pyrimidin-6(7H)-one] | 104% | 144 nM | B (Category B=SBP in SHRs 20-40 mmHg) | –
CC1(c2ccc(F)cn2)C(=O)Nc2nc(-c3cn4ccnc4c(CC4CCC4)n3)nc(O)c21 (stereo not drawn) [Example 31B, 2-(8-(cyclobutylmethyl)imidazo [1,2-a]pyrazin-6-yl)-5-(5-fluoropyridin-2-yl)-4-hydroxy-5-methyl-5H-pyrrolo[2,3-d]pyrimidin-6(7H)-one] | 82% | 459 nM | – | B (Category B=SBP in SHRs 20-40 mmHg)
CC1(c2ccc(F)cn2)C(=O)Nc2nc(-c3cn4ccnc4c(CCCC(F)(F)F)n3)ncc21 (stereo not drawn) [Example 66B, 5-(5-fluoropyridin-2-yl)-5-methyl-2-(8-(4,4,4-trifluorobutyl)imidazo[1,2-a]pyrazin-6-yl)-5H-pyrrolo[2,3-d]pyrimidin-6(7H)-one] | 125% | 217 nM | A (Category A=SBP in SHRs<20 mmHg) | –
CC1(c2ccc(F)c(F)c2)C(=O)Nc2nc(-c3cn4ccnc4c(CCC(F)(F)F)n3)ncc21 (stereo not drawn) [Example 37B, 5-(3,4-difluorophenyl)-5-methyl-2-(8-(3,3,3-trifluoropropyl)imidazo[1,2-a]pyrazin-6-yl)-5H-pyrrolo[2,3-d]pyrimidin-6(7H)-one] | 125% | 800 nM | – | B (Category B=SBP in SHRs 20-40 mmHg)
CC1(c2ccc(F)cn2)C(=O)Nc2nc(-c3cn4ccnc4c(Cc4ccc(F)cc4)n3)nc(O)c21 (stereo not drawn) [Example 6B, 2-(8-(4-fluorobenzyl)imidazo[1,2-a]pyrazin-6-yl)-5-(5-fluoropyridin-2-yl)-4-hydroxy-5-methyl-5H-pyrrolo[2,3-d]pyrimidin-6(7H)-one] | 118% | 253 nM | C (Category C=SBP in SHRs>40 mmHg) | –
CCCCc1nc(-c2nc(O)c3c(n2)NC(=O)C3(c2ccc(Cl)cc2)C2CC2)cn2ccnc12 (stereo not drawn) [Example 23B, 2-(8-butylimidazo[1,2-a]pyrazin-6-yl)-5-(4-chlorophenyl)-5-cyclopropyl-4-hydroxy-5H-pyrrolo[2,3-d]pyrimidin-6(7H)-one] | 146% | 204 nM | A (Category A=SBP in SHRs<20 mmHg) | –
CC1(c2ccc(F)cc2)C(=O)Nc2nc(-c3cn4ccnc4c(CCC(F)(F)C(F)(F)F)n3)nc(O)c21 (stereo not drawn) [Example 2A, 5-(4-Fluorophenyl)-4-hydroxy-5-methyl-2-(8-(3,3,4,4,4-pentafluorobutyl)imidazo[1,2-a]pyrazin-6-yl)-5H-pyrrolo[2,3-d]pyrimidin-6(7H)-one] | 102% | 433 nM | – | B (Category B=SBP in SHRs 20-40 mmHg)

The next compounds have a lower EC50 (sGC α1/β1 heterodimer) than those just listed; values first:

Emax (sGC α1/β1 heterodimer) | EC50 (sGC α1/β1 heterodimer) | SMILES | Cat. (maximum peak decrease of systolic blood pressure (SBP) in SHR) ([1]; single oral dose 1.0 mpk P.O.) | Cat. (maximum peak decrease of systolic blood pressure (SBP) in SHR) ([1]; single oral dose 3.0 mpk P.O.)
124% | 102 nM | O=C1Nc2nc(-c3cn4ccnc4c(CCCC(F)(F)F)n3)nc(O)c2C1(c1ccc(Cl)cc1F)C1CC1 (stereo not drawn) [Example 34A, 5-(4-chloro-2-fluorophenyl)-5-cyclopropyl-4-hydroxy-2-(8-(4,4,4-trifluorobutyl)imidazo[1,2-a]pyrazin-6-yl)-5H-pyrrolo[2,3-d]pyrimidin-6(7H)-one] | – | B (Category B=SBP in SHRs 20-40 mmHg)
95% | 70 nM | CC1(c2ccc(Cl)c(F)c2)C(=O)Nc2nc(-c3cn4ccnc4c(CCC(F)(F)F)n3)ncc21 (stereo not drawn) [Example 56B, 5-(4-chloro-3-fluorophenyl)-5-methyl-2-(8-(3,3,3-trifluoropropyl)imidazo[1,2-a]pyrazin-6-yl)-5H-pyrrolo[2,3-d]pyrimidin-6(7H)-one] | A (Category A=SBP in SHRs<20 mmHg) | –
109% | 57 nM | CC1(c2ccc(F)cc2)C(=O)Nc2nc(-c3cn4ccnc4c(CCC(F)(F)C(F)(F)F)n3)nc(C(N)=O)c21 (stereo not drawn) [Example 86A, 5-(4-Fluorophenyl)-5-methyl-6-oxo-2-(8-(3,3,4,4,4-pentafluorobutyl)imidazo[1,2-a]pyrazin-6-yl)-6,7-dihydro-5H-pyrrolo[2,3-d]pyrimidine-4-carboxamide] | B (Category B=SBP in SHRs 20-40 mmHg) | –
121% | 50 nM | CCCCc1nc(-c2ncc3c(n2)NC(=O)C3(C)c2ccc(F)cc2)cn2ccnc12 (stereo not drawn) [Example 78A, 2-(8-Butylimidazo[1,2-a]pyrazin-6-yl)-5-(4-fluorophenyl)-5-methyl-5H-pyrrolo[2,3-d]pyrimidin-6(7H)-one] | C (Category C=SBP in SHRs>40 mmHg) | –
118% | 34 nM | CC1(c2ccc(Cl)cc2)C(=O)Nc2nc(-c3cn4ccnc4c(CCC(F)(F)C(F)(F)F)n3)ncc21 (stereo not drawn) [Example 3A, 5-(4-chlorophenyl)-5-methyl-2-(8-(3,3,4,4,4-pentafluorobutyl)imidazo[1,2-a]pyrazin-6-yl)-5H-pyrrolo[2,3-d]pyrimidin-6(7H)-one] | B (Category B=SBP in SHRs 20-40 mmHg) | –
137% | 21 nM | O=C1Nc2nc(-c3cn4ccnc4c(CCCC(F)(F)F)n3)ncc2C1(c1ccc(F)cn1)C1CC1 (stereo not drawn) [Example 54A, 5-cyclopropyl-5-(5-fluoropyridin-2-yl)-2-(8-(4,4,4-trifluorobutyl)imidazo[1,2-a]pyrazin-6-yl)-5H-pyrrolo[2,3-d]pyrimidin-6(7H)-one] | A (Category A=SBP in SHRs<20 mmHg) | –
